Assay results: patent publication US20230151432A1, “KIF18A INHIBITORS FOR TREATMENT OF NEOPLASTIC DISEASES” (AMGEN INC., priority 2020, published 2023)

Experiments:
[1] = system: KIF18A protein localization in HeLa cells; test: KIF18A and Centrin-3 immunostaining; format: cell-based, human; details: 0.05 μM, 6 hours
Experimental: To analyze the effect of KIF18A protein localization in cancer cells treated with a KIF18A inhibitor, KIF18A and Centrin-3 immunostaining in HeLa cells (FIG. 11). Cells were seeded into Lab-Tek 2-well chamber slides at a density of 100,000 cells per chamber in complete growth media and grown for 2 days to approximately 80% confluency. Cells were treated for 6 hours with DMSO, KIF18A inhibitor (Compound C9, 0.05 μM) in 2 mL of complete media. Cells were fixed in 4% formaldehyde for 15 minutes at room temperature followed by secondary fixation in ice-cold 90% methanol for 10 minutes at 4° C. After fixation, cells were washed in 2 mL of Wash Buffer (1% BSA, 0.2% Triton X-100, 1×PBS) and blocked 1 mL of Blocking Buffer (2 drops of horse serum (Vector Labs, Burlingame, Calif.) per 5 mL Wash Buffer). Cells are stained with anti-KIF18A rabbit antibody (1:3000, A301-080A 05-806, Bethyl) and anti-CETN3 mouse antibody (1:1000, H00001070-M01, Abnova) in 1 mL of Wash Buffer for 2 hours at room temperature. Cells were washed twice with 2 mL Wash Buffer. […] Wide-field images were captured using 40×objective on upright Nikon Eclipse NI-E epi-fluorescence microscope running Elements software. […]

[2] = system: human foreskin fibroblast (hFSF) cells; test: BrdU incorporation assay in normal cells; format: cell-based; details: 48 hours
Experimental: (§1) The effect KIF18A inhibitor treatment has on proliferation of normal somatic cells (e.g., not neoplastic cells) was tested by assaying proliferation of human bone marrow mononuclear cells (HBMNCs), primary human foreskin fibroblast cells (hFSF) and human mammary epithelial cells via a 5-bromo-2′-deoxyuridine (BrdU) incorporation assay in which BrdU, an analog of the nucleoside thymidine, is used to identify proliferating cells (Payton et. al., Molecular Cancer Therapeutics, 17(12):2575-85 (2018)). Cells were analyzed on BD LSRFortessa flow cytometer using BD FACSDiva software (BD Biosciences), and post-acquisition data analysis was performed using FSC-Express software (De Novo). The percentage of BrdU positive gated events on the stacked DNA content histograms were reported.

[3] = system: human mammary epithelial cells (HMEC); test: BrdU incorporation assay in normal cells; format: cell-based; details: 48 hours
Experimental: as §1

[4] = biological target: T1, Recombinant human KIF18A (1-467 His-tagged) protein (Homo sapiens, UniProt Q8NI77); test: KIF18A Enzyme Assay (microtubule-stimulated ATPase activity, ADP-Glo); format: biochemical; details: 30 nM KIF18A, 75 μM ATP
T1 construct: Recombinant human KIF18A (1-467 His-tagged) protein; His; made in house
Experimental: KIF18A Enzyme Assay: Microtubule-stimulated ATPase activity assay was used to measure KIF18A enzyme activity after treatment with compound. Compounds were 2-fold serially diluted in DMSO (Sigma Inc) over 22-point concentration range. […] The assay measures ADP formed from the ATPase reaction.
Concentration-response curve-fitting and IC50 determination was performed using Genedata Screener Software (Standard 15.0.1, Genedata Inc) with a four-parameter logistic regression fit model.

T1 sequence (Q8NI77 1-467): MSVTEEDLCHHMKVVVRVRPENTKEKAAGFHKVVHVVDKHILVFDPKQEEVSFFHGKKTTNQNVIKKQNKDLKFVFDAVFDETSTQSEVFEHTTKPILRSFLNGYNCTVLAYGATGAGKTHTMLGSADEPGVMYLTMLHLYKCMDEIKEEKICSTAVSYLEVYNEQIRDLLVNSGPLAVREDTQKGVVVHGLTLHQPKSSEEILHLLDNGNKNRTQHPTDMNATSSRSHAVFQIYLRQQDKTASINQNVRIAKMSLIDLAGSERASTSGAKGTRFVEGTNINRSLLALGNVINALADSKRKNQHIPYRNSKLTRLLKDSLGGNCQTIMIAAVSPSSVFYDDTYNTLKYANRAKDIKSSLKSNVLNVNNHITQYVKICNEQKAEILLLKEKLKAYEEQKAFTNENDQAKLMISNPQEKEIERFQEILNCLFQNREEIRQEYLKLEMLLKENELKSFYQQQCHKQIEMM
T1 sequence (P02550 whole entry partner): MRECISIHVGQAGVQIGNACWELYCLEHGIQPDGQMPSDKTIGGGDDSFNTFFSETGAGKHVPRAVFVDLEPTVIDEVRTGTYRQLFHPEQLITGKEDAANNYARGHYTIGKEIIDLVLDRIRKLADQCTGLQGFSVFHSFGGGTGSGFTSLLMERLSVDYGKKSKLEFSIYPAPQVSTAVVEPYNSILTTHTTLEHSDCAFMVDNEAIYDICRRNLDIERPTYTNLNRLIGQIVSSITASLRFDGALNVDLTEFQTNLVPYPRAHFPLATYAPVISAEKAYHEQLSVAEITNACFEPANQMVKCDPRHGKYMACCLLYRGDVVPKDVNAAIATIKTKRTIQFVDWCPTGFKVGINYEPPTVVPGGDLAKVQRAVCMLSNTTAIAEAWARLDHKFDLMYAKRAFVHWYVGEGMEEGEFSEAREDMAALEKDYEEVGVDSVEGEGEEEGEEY
T1 sequence (P02554 whole entry partner): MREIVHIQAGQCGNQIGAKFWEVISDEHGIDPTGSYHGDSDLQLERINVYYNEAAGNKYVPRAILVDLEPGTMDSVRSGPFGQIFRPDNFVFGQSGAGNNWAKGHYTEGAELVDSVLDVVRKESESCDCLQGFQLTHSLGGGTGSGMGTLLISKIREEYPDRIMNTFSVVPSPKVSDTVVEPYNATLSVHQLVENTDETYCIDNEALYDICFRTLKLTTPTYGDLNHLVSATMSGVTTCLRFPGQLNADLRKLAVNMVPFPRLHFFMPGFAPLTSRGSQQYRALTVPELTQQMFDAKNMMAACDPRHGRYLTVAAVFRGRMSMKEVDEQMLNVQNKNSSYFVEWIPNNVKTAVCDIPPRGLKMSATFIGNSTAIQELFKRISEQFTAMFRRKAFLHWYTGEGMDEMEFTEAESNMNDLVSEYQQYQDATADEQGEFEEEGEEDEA

Structure (SMILES)	KIF18A protein localization in mitosis [1]	BrdU incorporation relative to DMSO treated cells [2]	BrdU incorporation relative to DMSO treated cells [3]	IC50 [4] [nM]
CC(C)(C)NS(=O)(=O)c1cccc(NC(=O)c2ccc(S(=O)(=O)NC(C)(C)C)cc2N2CCC3(CC2)CC3)c1 [Compound C9, 4-(N-(tert-butyl)sulfamoyl)-N-(3-(N-(tert-butyl)sulfamoyl)phenyl)-2-(6-azaspiro[2.5]octan-6-yl)benzamide]	KIF18A protein mis-localization in mitosis			
CC(C)(CO)Nc1ccc(C(=O)Nc2cccc(S(=O)(=O)C3CCCC3)c2)c(N2CCC3(CC2)CC3)n1 [Compound C11, N-(3-(cyclopentylsulfonyl)phenyl)-6-((1-hydroxy-2-methylpropan-2-yl)amino)-2-(6-azaspiro[2.5]octan-6-yl)nicotinamide]		not impacted at concentrations <10 μM	not impacted at concentrations <10 μM	41
